Earlier results as cited in patent US12649758B2, “Industrial method for simultaneously preparing Stevia rebaudiana chlorogenic acid and stevioside” (Chenguang Biotech Group Co., Ltd., priority 2018, dated 2026).

C=C1C[C@@]23CC[C@H]4[C@@](C)(CCC[C@@]4(C)C(=O)O[C@@H]4O[C@H](CO)[C@@H](O)[C@H](O)[C@H]4O)[C@@H]2CC[C@]1(O[C@@H]1O[C@H](CO)[C@@H](O)[C@H](O)[C@H]1O[C@@H]1O[C@H](CO)[C@@H](O)[C@H](O)[C@H]1O)C3 [Stevioside, stevioside]
sweetness relative to sucrose: 300 to 500 times of sucrose
